In publication PMC8779134 (2022) one finds binding and Kd data, which are given here for seven compounds.

Each structure is given as a SMILES string. *1 amine or outer side, *2 acyl side, *3 side chain or, on linkers, in order; H or OH if unused. Where a SMILES comes first, the peptide text is derived from it. Bridges are numbered along the chain shown (N, C = ends). [ ]: non-standard residue; d: D form. ξ: configuration not given here. ξTrp(2-yl) = O=C(C(Cc1c([*:3])[nH]c2ccccc12)N[*:1])[*:2]; X2 = O=C(C(CC(O)(CO)CO)N[*:1])[*:2]; X1 = CC(O)(CO)CC(N[*:1])C(=O)[*:2]; ξAsp(3ξ-OH) = NC(C(=O)O)C(O)C(=O)O; Hyp = O=C(O)[CH]1C[CH](O)CN1

Test [1] relates to Apt (DNA, aptamer) CATGCTTCCCCAGGGAGATGGAGGTCTTTTTGGTTGTTGGTGGGGGAATCTTTTGGTATTGAGGAACATG
The test is described as follows: AuNP colorimetric assay (A620/A520). The note with it: Na+ 40 mM (NaCl added after binding), room temperature, 400 nM aptamer.

For test [2], the system named is biotin-labeled Apt (DNA, aptamer) CATGCTTCCCCAGGGAGATGGAGGTCTTTTTGGTTGTTGGTGGGGGAATCTTTTGGTATTGAGGAACATG
The test is described as follows: magnetic bead ELISA, competition (A450). The note with it: 37 °C, biotinylated complementary strand as competitor.

Test [3] deals with Apt-2 (DNA, aptamer) CCAGGGAGATGGAGGTCTTTTTGGTTGTTGGTGGGGGAATCTTTTGGTATTGAGGAACATG
The test is described as follows: AuNP colorimetric assay (A520). The note with it: Na+ 40 mM (NaCl added after binding); room temperature; aptamer 0-1600 nM titrated into 1 μg/mL α-amanitin; apparent; table unit misprinted Nm.

Test [4] concerns Apt-12 (DNA, aptamer) GGGAGATGGAGGTCTT
The test is described as follows: ITC. The note with it: ultrapure water, 25 °C; 500 μM aptamer titrated into 41.6 μM α-amanitin.

Test [5] has as its system Apt-11 (DNA, aptamer) CTTCCCCAGGGAGATGGAGGTCTTTTTGGTTGTTGGTGGGGGAAT
Nature of the test: ITC. The note with it: ultrapure water, 25 °C; 500 μM aptamer into 41.6 μM α-amanitin; fit unphysical (N, ΔH).

For test [6], the system named is Apt-2 (DNA, aptamer) CCAGGGAGATGGAGGTCTTTTTGGTTGTTGGTGGGGGAATCTTTTGGTATTGAGGAACATG
The test is described as follows: ITC. To be noted: ultrapure water, 25 °C; 500 μM aptamer titrated into 41.6 μM α-amanitin.

In test [7] the test system is Apt-12 (DNA, aptamer) GGGAGATGGAGGTCTT
The test is described as follows: AuNP colorimetric assay (A520). To be noted: Na+ 40 mM (NaCl added after binding); room temperature; 1 μg/mL α-amanitin; apparent; text b16 prints 132.1 ± 32.99 nM instead.

For test [8], the system named is Apt (DNA, aptamer) CATGCTTCCCCAGGGAGATGGAGGTCTTTTTGGTTGTTGGTGGGGGAATCTTTTGGTATTGAGGAACATG
The test is described as follows: AuNP colorimetric assay (A520). To be noted: Na+ 40 mM (NaCl added after binding); room temperature; aptamer 0-1600 nM titrated into 1 μg/mL α-amanitin; apparent; table unit misprinted Nm.

The test system of test [9] is Apt-8 (DNA, aptamer) CATGCTTCCCCAGGGAGATGGAGGTCTTTTTGGTTGTTGGTGGGGGAATCTTTTGGTA
Nature of the test: ITC. The note with it: ultrapure water, 25 °C; 500 μM aptamer titrated into 41.6 μM α-amanitin.

The test system of test [10] is Apt-10 (DNA, aptamer) CCCCAGGGAGATGGAGGTCTTTTTGGTTGTTGGTGGGGGAATCTTTTGGTATTGAGGAA
The test is described as follows: AuNP colorimetric assay (A520). To be noted: Na+ 40 mM (NaCl added after binding); room temperature; aptamer 0-1600 nM titrated into 1 μg/mL α-amanitin; apparent; table unit misprinted Nm.

Test [11] has as its system Apt-8 (DNA, aptamer) CATGCTTCCCCAGGGAGATGGAGGTCTTTTTGGTTGTTGGTGGGGGAATCTTTTGGTA
Nature of the test: AuNP colorimetric assay (A520). To be noted: Na+ 40 mM (NaCl added after binding); room temperature; aptamer 0-1600 nM titrated into 1 μg/mL α-amanitin; apparent; table unit misprinted Nm.

The subject of test [12] is Apt-11 (DNA, aptamer) CTTCCCCAGGGAGATGGAGGTCTTTTTGGTTGTTGGTGGGGGAAT
Nature of the test: AuNP colorimetric assay (A520). To be noted: Na+ 40 mM (NaCl added after binding); room temperature; aptamer 0-1600 nM titrated into 1 μg/mL α-amanitin; apparent; table unit misprinted Nm.

Test [13] has as its system Apt-10 (DNA, aptamer) CCCCAGGGAGATGGAGGTCTTTTTGGTTGTTGGTGGGGGAATCTTTTGGTATTGAGGAA
Nature of the test: ITC. To be noted: ultrapure water, 25 °C; 500 μM aptamer into 41.6 μM α-amanitin; printed ΔG positive.

The subject of test [14] is Apt (DNA, aptamer) CATGCTTCCCCAGGGAGATGGAGGTCTTTTTGGTTGTTGGTGGGGGAATCTTTTGGTATTGAGGAACATG
Nature of the test: ITC. To be noted: ultrapure water, 25 °C; 500 μM aptamer titrated into 41.6 μM α-amanitin.

[15] abbreviates: highest concentration 500 ng/mL.

In the case of `CCCC[C@@H](C)[C@@H](OC(=O)C[C@@H](CC(=O)O)C(=O)O)[C@H](C[C@@H](C)C[C@H](O)CCCC[C@@H](O)C[C@H](O)[C@H](C)N)OC(=O)C[C@@H](CC(=O)O)C(=O)O`, in [1] (highest concentration 1 μg/mL), the binding entry was “no”.
For `CC[C@H](C)[C@@H]1NC(=O)CNC(=O)[C@@H]2Cc3c([nH]c4cc(O)ccc34)[S@](=O)C[C@H](NC(=O)CNC1=O)C(=O)N[C@@H](CC(=O)O)C(=O)N1C[C@H](O)C[C@H]1C(=O)N[C@@H]([C@@H](C)[C@@H](O)CO)C(=O)N2`, the binding entry in test [2] (500 ng/mL) and in [1] (1 μg/mL β-amanitin) was “yes” in each case.
Consider `CC[C@H](C)[C@@H]1NC(=O)CNC(=O)[C@@H]2Cc3c([nH]c4cc(O)ccc34)[S@](=O)C[C@H](NC(=O)CNC1=O)C(=O)N[C@@H](CC(N)=O)C(=O)N1C[C@H](O)C[C@H]1C(=O)N[C@@H]([C@@H](C)[C@@H](O)CO)C(=O)N2`, for which, in test [2] (0.1-6 μg/mL), the binding result is “yes”. The Kd in test [3] worked out at 37.9 ± 6.053 nM; in test [4], 84700 nM; in test [5], 54600 nM; in test [6] it was 46900 nM; in test [7], 185.2 ± 60.87 nM; in test [8] it was 33.6 ± 3.928 nM. Besides, the Kd is 11900 nM in test [9]; 108.7 ± 18.23 nM in test [10]; 130.9 ± 31.1 nM in [11]; 184.4 ± 37.08 nM in [12]; 68000 nM in test [13]; 3100 nM in test [14].
With `CC[C@H](C)[C@@H]1NC(=O)CNC(=O)[C@@H]2Cc3c([nH]c4cc(O)ccc34)[S@](=O)C[C@H](NC(=O)CNC1=O)C(=O)N[C@@H](CC(N)=O)C(=O)N1C[C@H](O)C[C@H]1C(=O)N[C@@H]([C@@H](C)[C@H](C)O)C(=O)N2`, the binding result in test [2] (setting [15]) is “no”.
For `C[C@@H]1Cc2c(Cl)cc(C(=O)N[C@@H](Cc3ccccc3)C(=O)O)c(O)c2C(=O)O1`, the binding result in test [1] (highest concentration 1 μg/mL) is given as “no”.
Consider `CC1NC(=O)C2CC(O)CN2C(=O)C2CSc3[nH]c4ccccc4c3CC(NC1=O)C(=O)NC(CC(C)(O)CO)C(=O)NC(C(C)C)C(=O)NC(C(O)C(=O)O)C(=O)N2` (centres unmarked) (cyclo([ξAsp(3ξ-OH)]C[Hyp]A[ξTrp(2-yl)][X1]V); thioether 2-5; configuration not given here), for which the binding entry in test [2] (setting [15]) is “no”.
The same measure, in the same setting: with `CC1NC(=O)C2CC(O)CN2C(=O)C2CSc3[nH]c4ccccc4c3CC(NC1=O)C(=O)NC(CC(O)(CO)CO)C(=O)NC(C(C)C)C(=O)NC(C(O)C(=O)O)C(=O)N2` (centres unmarked) (cyclo([ξAsp(3ξ-OH)]C[Hyp]A[ξTrp(2-yl)][X2]V); thioether 2-5; configuration not given here) the entry was “no”.
